We go through seven compounds from patent US7919268B2, “Reducing sample turbidity in measurement of enzymatic activity in cell lysates” (Roche Diagnostics Operations, Inc., priority 2005, dated 2011).

Counter-ions that a name gives are not always drawn.

The first test deals with LDH.
Experiment: not given
Particulars: 0.2 M HCl, Triton X100 1% (v/v). Here is the method:
In another experiment HCl and NaOH were used as a stop reagent.
For this purpose cell-free lysates each of 1000 cells were used in an LDH test with the components from the Cytotoxicity Detection Kit (LDH) containing the modified dye solution. After a reaction time of 30 min different stop reagents were added to these mixtures and the absorption was monitored at 492 nm (the absorption maximum of reduced INT).
Turning to `Cl` [HCl], the “Termination of the LDH reaction (in words)” value (shortened to “Termination”) is reported as “suitable stop reagent”.

The test is the same for the next values; noted with them: 492 nm; lysate of 1000 cells; reaction time 30 min; 0.2 M HCl, Triton X100 1% (v/v).
With `Cl` [HCl], the “Absorption 0 min after adding stop reagent” value (shortened to “Absorption 0 min”) amounted to 0.275, the “Absorption 30 min after adding stop reagent” value (from here on “Absorption 30 min”) turned out to be 0.271 and the “Absorption 120 min after adding stop reagent” value (from here on “Absorption 120 min”) is recorded as 0.261.

The next test deals with human suspension cell line U 937. Put plainly: Absorption of cells at 690 nm after treatment with different reagents. The class given is cell-based. The conditions noted are these: 25 000 U 937 cells, reagent final concentration 1% (v/v). Here is the method:
The human suspension cell line U 937 was cultured in RPMI 1640 medium (Sigma Company) containing 10% foetal calf serum and 2 mM glutamine. The cells were then washed in fresh RPMI medium and adjusted to 25,000, 50,000 and 100,000 cells/100 μl. 100 μl thereof was in each case transferred to a 96-well standard microtitre plate. 50 μl RPMI medium containing the appropriate reagents was added by pipette to each of the cell solutions.
The absorption of each well was measured at a wavelength of 690 nm after 5 min and 75 min incubation.
For `CCCCCCCCCCCCCCCC[N+](C)(C)C.[Br-]` [CTAB, cetyltrimethylammonium bromide], the “Absorption after 5 min” value was determined as 0.006 and the “Absorption after 75 min” value was found to be 0.003.
As for `CCCCCCCCCCCC[N+](C)(C)C.[Br-]` [DTAB, dodecyltrimethylammonium bromide], the “Absorption after 5 min” value came out at 0.005 and the “Absorption after 75 min” value was 0.006.
For `CCCCCCCCCCCCN(C)CC(=O)O` [N-laurylsarcosine], in that order: 0.001 and 0.002.
For `CCCCCCCCCCCCOS(=O)(=O)[O-].[Na+]` [SDS, sodium dodecyl sulphate], in that order: 0.002 and 0.003.
The matching figures for “octylphenoxypolyethoxyethanol [Triton X100]”: 0.001 and 0.001.

Staying with this test, now noted: 50 000 U 937 cells, reagent final concentration 1% (v/v).
For `CCCCCCCCCCCCCCCC[N+](C)(C)C.[Br-]` [CTAB, cetyltrimethylammonium bromide], the “Absorption after 5 min” value was 0.031 and the “Absorption after 75 min” value is given as 0.014.
For `CCCCCCCCCCCC[N+](C)(C)C.[Br-]` [DTAB, dodecyltrimethylammonium bromide], in that order: 0.012 and 0.011.
The matching figures for `CCCCCCCCCCCCN(C)CC(=O)O` [N-laurylsarcosine]: 0.003 and 0.004.
For `CCCCCCCCCCCCOS(=O)(=O)[O-].[Na+]` [SDS, sodium dodecyl sulphate], in that order: 0.006 and 0.006.
As to “octylphenoxypolyethoxyethanol [Triton X100]”, the “Absorption after 5 min” value worked out at 0.004 and the “Absorption after 75 min” value stood at 0.004.

The test is the same for the next values; noted with them: 100 000 U 937 cells, reagent final concentration 1% (v/v).
For `CCCCCCCCCCCCCCCC[N+](C)(C)C.[Br-]` [CTAB, cetyltrimethylammonium bromide], the “Absorption after 5 min” value is 0.025 and the “Absorption after 75 min” value worked out at 0.018.
Take `CCCCCCCCCCCC[N+](C)(C)C.[Br-]` [DTAB, dodecyltrimethylammonium bromide]: the “Absorption after 5 min” value was determined as 0.024 and the “Absorption after 75 min” value came to 0.021.
For `CCCCCCCCCCCCN(C)CC(=O)O` [N-laurylsarcosine], in that order: 0.012 and 0.013.
For `CCCCCCCCCCCCOS(=O)(=O)[O-].[Na+]` [SDS, sodium dodecyl sulphate], in that order: 0.010 and 0.010.
The matching figures for “octylphenoxypolyethoxyethanol [Triton X100]”: 0.008 and 0.008.

The test system of the next test is LDH.
Experiment: not given
The format is biochemical, human. Particulars: 492 nm; lysate of 5000 cells; reaction time 5 min; SDS 3% (v/v), sodium oxamate 15 mM, Triton X100 1% (v/v).
As for `CCCCCCCCCCCCOS(=O)(=O)[O-].[Na+]` [SDS, sodium dodecyl sulphate], the “Absorption 0 min” value is 0.113, the “Absorption 30 min” value was determined as 0.113 and the “Absorption 120 min” value is given as 0.105.
Take `NC(=O)C(=O)[O-].[Na+]` [sodium oxamate]: the “Absorption 0 min” value worked out at 0.113, the “Absorption 30 min” value was determined as 0.127 and the “Absorption 120 min” value stood at 0.179.

The same test, now with this note: SDS 3% (v/v), sodium oxamate 15 mM, Triton X100 1% (v/v).
As for `CCCCCCCCCCCCOS(=O)(=O)[O-].[Na+]` [SDS, sodium dodecyl sulphate], the “Termination” value is on record as “stop the LDH reaction”.
For the compound `NC(=O)C(=O)[O-].[Na+]` [sodium oxamate], the “Termination” value is reported as “stop the LDH reaction”.
